Source: patent publication US20120264735A1 (priority 2009, published 2012)

Molecular target: T1, c-Met kinase (recombinant c-Met) (Homo sapiens, UniProt P08581)
T1 construct: 0.27 nM recombinant c-Met
Assay: In vitro kinase assay I (homogeneous time-resolved fluorescence tyrosine kinase assay)
Assay type: biochemical
Method in brief: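 Biotinylated peptide (0.5 μM) phosphorylated by 0.2 nM recombinant c-Met with 50 μM MgATP, 60 min at room temperature, pH 7.4, 5% DMSO. EDTA stop; HTRF read with Eu-anti-phosphotyrosine antibody and streptavidin-APC. IC50 from 4-parameter logistic fit.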

T1 sequence (P08581 25-1390): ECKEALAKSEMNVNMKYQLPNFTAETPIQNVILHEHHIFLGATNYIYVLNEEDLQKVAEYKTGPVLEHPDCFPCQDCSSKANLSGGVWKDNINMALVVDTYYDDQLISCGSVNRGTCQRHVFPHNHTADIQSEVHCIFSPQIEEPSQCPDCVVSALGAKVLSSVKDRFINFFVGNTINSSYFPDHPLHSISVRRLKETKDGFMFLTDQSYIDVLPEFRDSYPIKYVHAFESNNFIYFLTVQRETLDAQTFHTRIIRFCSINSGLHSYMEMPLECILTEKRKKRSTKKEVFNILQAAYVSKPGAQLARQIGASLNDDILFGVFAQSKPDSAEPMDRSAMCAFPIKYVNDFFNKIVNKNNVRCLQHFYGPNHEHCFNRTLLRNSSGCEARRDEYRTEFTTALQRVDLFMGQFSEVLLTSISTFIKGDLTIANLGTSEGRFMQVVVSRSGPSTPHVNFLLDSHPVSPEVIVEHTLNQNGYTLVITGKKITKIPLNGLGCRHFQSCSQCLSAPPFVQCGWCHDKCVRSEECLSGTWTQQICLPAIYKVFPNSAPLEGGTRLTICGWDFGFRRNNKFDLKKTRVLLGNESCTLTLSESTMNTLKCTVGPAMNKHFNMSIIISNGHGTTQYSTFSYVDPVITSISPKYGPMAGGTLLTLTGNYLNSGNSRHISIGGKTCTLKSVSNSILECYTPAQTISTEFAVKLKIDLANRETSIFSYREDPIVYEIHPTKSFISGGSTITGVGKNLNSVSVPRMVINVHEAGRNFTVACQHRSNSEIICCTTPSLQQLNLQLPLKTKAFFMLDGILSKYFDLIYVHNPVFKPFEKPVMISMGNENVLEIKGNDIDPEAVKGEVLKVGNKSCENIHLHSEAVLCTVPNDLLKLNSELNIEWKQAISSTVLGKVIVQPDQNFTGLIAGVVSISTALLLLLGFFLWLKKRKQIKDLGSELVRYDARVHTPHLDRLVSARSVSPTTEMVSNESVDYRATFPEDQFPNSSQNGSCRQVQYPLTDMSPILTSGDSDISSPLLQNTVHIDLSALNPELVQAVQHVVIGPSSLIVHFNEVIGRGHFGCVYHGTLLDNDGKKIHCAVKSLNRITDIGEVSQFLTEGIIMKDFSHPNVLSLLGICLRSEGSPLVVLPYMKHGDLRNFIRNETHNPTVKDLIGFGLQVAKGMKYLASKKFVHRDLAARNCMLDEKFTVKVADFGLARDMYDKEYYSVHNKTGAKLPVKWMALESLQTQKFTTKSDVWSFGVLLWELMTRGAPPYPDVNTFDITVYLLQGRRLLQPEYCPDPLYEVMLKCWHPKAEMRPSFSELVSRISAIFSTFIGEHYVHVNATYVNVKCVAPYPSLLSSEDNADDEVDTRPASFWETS

IC50 [nM]	Compound
< 100	CCn1cc(-n2ccc(=O)c(Cc3cccc(-c4ncc(OC5CNC5)cn4)c3)n2)cn1 [Example 337, 3-{3-[5-(azetidin-3-yloxy)pyrimidin-2-yl]benzyl}-1-(1-ethyl-1H-pyrazol-4-yl)pyridazin-4(1H)-one]
< 100	Cn1cc(-n2ccc(=O)c(Cc3cccc(NC(=O)OCCN4CCOCC4=O)c3)n2)cn1 [Example 535, 2-(3-oxomorpholin-4-yl)ethyl (3-{[1-(1-methyl-1H-pyrazol-4-yl)-4-oxo-1,4-dihydropyridazin-3-yl]methyl}phenyl)carbamate]
< 100	CC(C)COC(=O)Nc1cccc(Cc2nn(-c3cnn(CCCC(=O)N4CCOCC4)c3)ccc2=O)c1 [Example 698, 2-methylpropyl [3-({1-[1-(4-morpholin-4-yl-4-oxobutyl)-1H-pyrazol-4-yl]-4-foundoxo-1,4-dihydropyridazin-3-yl}methyl)phenyl] carbamate]
< 100	Cn1cc(-n2ccc(=O)c(Cc3cccc(-c4ncc(OC5CCC6(CC5)OCCO6)cn4)c3)n2)cn1 [Example 123, 3-{3-[5-(1,4-dioxaspiro[4.5]dec-8-yloxy)pyrimidin-2-yl]benzyl}-1-(1-methyl-1H-pyrazol-4-yl)pyridazin-4(1H)-one]
< 100	Cn1cc(-n2ccc(=O)c(Cc3cccc(-c4ncc(C(=O)NCC5COCCO5)cn4)c3)n2)cn1 (racemic) [Example 476, rac-N-(1,4-dioxan-2-ylmethyl)-2-(3-{[1-(1-methyl-1H-pyrazol-4-yl)-4-oxo-1,4-dihydro-pyridazin-3-yl]methyl}phenyl)pyrimidine-5-carboxamide]
< 100	Cn1cc(-n2ccc(=O)c(Cc3cccc(NC(=O)CCc4ccccc4)c3)n2)cn1 [Example 633, N-(3-{[1-(1-methyl-1H-pyrazol-4-yl)-4-oxo-1,4-dihydropyridazin-3-yl]methyl}phenyl)-3-phenylpropanamide]
< 100	O=C(Nc1cccc(Cc2nn(-c3cc(F)c(F)c(F)c3)ccc2=O)c1)OCC1CCOCC1 [Example 558, tetrahydro-2H-pyran-4-ylmethyl (3-{[4-oxo-1-(3,4,5-trifluorophenyl)-1,4-dihydropyridazin-3-yl]methyl}phenyl)carbamate]
< 100	Cn1cc(-n2ccc(=O)c(Cc3cccc(NC(=O)OCC4CCOC(C)(C)C4)c3)n2)cn1 (racemic) [Example 611, rac-(2,2-dimethyl-tetrahydro-2H-pyran-4-yl)methyl (3-{[1-(1-methyl-1H-pyrazol-4-yl)-4-oxo-1,4-dihydropyridazin-3-yl]methyl}phenyl)carbamate]
< 100	O=C(Nc1cccc(Cc2nn(-c3cnn(CC(F)(F)F)c3)ccc2=O)c1)OCCN1CCOCC1 [Example 116, 2-morpholin-4-ylethyl [3-({4-oxo-1-[1-(2,2,2-trifluoroethyl)-1H-pyrazol-4-yl]-1,4-dihydropyridazin-3-yl}methyl)phenyl]carbamate]
100 to 1000	Cc1nc(-c2cccc(Cc3nn(-c4cnn(C)c4)ccc3=O)c2)no1 [Example 42, 3-[3-(5-methyl-1,2,4-oxadiazol-3-yl)benzyl]-1-(1-methyl-1H-pyrazol-4-yl)pyridazin-4(1H)-one]
< 100	COCCOc1cnc(-c2cccc(Cc3nn(-c4ccc(C#N)c(F)c4)ccc3=O)c2)nc1 [Example 144, 2-fluoro-4-[3-{3-[5-(2-methoxyethoxy)pyrimidin-2-yl]benzyl}-4-oxopyridazin-1(4H)-yl]benzonitrile]
< 100	CCn1cc(-n2ccc(=O)c(Cc3cccc(-c4ncc(OC5COC5)cn4)c3)n2)cn1 [Example 165, 1-(1-ethyl-1H-pyrazol-4-yl)-3-{3-[5-(oxetan-3-yloxy)pyrimidin-2-yl]benzyl}pyridazin-4(1H)-one]
< 100	CCOc1cnc(-c2cccc(C(C)c3nn(-c4cccc(C(N)=O)c4)ccc3=O)c2)nc1 (racemic) [Example 738, rac-3-[3-{1-[3-(5-ethoxypyrimidin-2-yl)phenyl]ethyl}-4-oxopyridazin-1(4H)-yl]lbenzamide]
< 100	O=C(Nc1cccc(Cc2nn(-c3cc(F)cc(F)c3)ccc2=O)c1)OCCN1CCNCC1 [Example 628, 2-piperazin-1-ylethyl (3-{[1-(3,5-difluorophenyl)-4-oxo-1,4-dihydropyridazin-3-yl]methyl}phenyl)carbamate]
< 100	CCOCC(O)COc1cnc(-c2cccc(Cc3nn(-c4cnn(C)c4)ccc3=O)c2)nc1 (racemic) [Example 370, rac-3-{3-[5-(3-ethoxy-2-hydroxypropoxy)pyrimidin-2-yl]benzyl}-1-(1-methyl-1H-pyrazol-4-yl)pyridazin-4(1H)-one]
< 100	Cn1cc(-n2ccc(=O)c(Cc3cccc(-c4ncc(OCC5(F)COC5)cn4)c3)n2)cn1 [Example 272, 3-(3-{5-[(3-fluorooxetan-3-yl)methoxy]pyrimidin-2-yl}benzyl)-1-(1-methyl-1H-pyrazol-4-yl)pyridazin-4(1H)-one]
100 to 1000	COCCc1nc(-c2cccc(Cc3nn(-c4cnn(C)c4)ccc3=O)c2)no1 [Example 744, 3-{3-[5-(2-methoxyethyl)-1,2,4-oxadiazol-3-yl]benzyl}-1-(1-methyl-1H-pyrazol-4-yl)pyridazin-4(1H)-one]
< 100	CCOC(=O)Nc1cccc(Cc2nn(-c3cc(F)c(F)c(F)c3)ccc2=O)c1 [Example 2, Ethyl(3-{[4-oxo-1-(3,4,5-trifluorophenyl)-1,4-dihydropyridazin-3-yl]methyl}phenyl)carbamate]
100 to 1000	CCOC(=O)c1cnc(-c2cccc(Cc3nn(-c4cnn(C)c4)ccc3=O)c2)o1 [Example 675, ethyl 2-(3-{[1-(1-methyl-1H-pyrazol-4-yl)-4-oxo-1,4-dihydropyridazin-3-yl]methyl}phenyl)-1,3-oxazole-5-carboxylate]
< 100	Cn1cc(-n2ccc(=O)c(Cc3cccc(NC(=O)OCCn4cncn4)c3)n2)cn1 [Example 534, 2-(1H-1,2,4-triazol-1-yl)ethyl (3-{[1-(1-methyl-1H-pyrazol-4-yl)-4-oxo-1,4-dihydropyridazin-3-yl]methyl}phenyl)carbamate]
< 100	CC(c1cccc(-c2ncc(OC(C)C(C)(C)O)cn2)c1)c1nn(-c2cnn(C)c2)ccc1=O (single isomer, unassigned) [Example 382, 3-{(1R or S)-1-[3-(5-{[(1R or S)-2-hydroxy-1,2-dimethylpropyl]oxy}pyrimidin-2-yl)phenyl]ethyl}-1-(1-methyl-1H-pyrazol-4-yl)pyridazin-4(1H)-one]
< 100	COC(C)(C)COc1cnc(-c2cccc(C(C)c3nn(-c4ccc(F)c(F)c4)ccc3=O)c2)nc1 (single isomer, unassigned) [Example 251, 1-(3,4-difluorophenyl)-3-[(1S or R)-1-{3-[5-(2-methoxy-2-methylpropoxy)pyrimidin-2-yl]phenyl}ethyl]pyridazin-4(1H)-one]
100 to 1000	CCn1cc(-n2ccc(=O)c(C(C)c3cccc(-c4ncn(CC)n4)c3)n2)cn1 (single isomer, unassigned) [Example 686, 1-(1-ethyl-1H-pyrazol-4-yl)-3-{(1S or R)-1-[3-(1-ethyl-1H-1,2,4-triazol-3-yl)phenyl]ethyl} pyridazin-4(1H)-one]
100 to 1000	Cc1nc(-c2cccc(C(C)c3nn(-c4cnn(C)c4)ccc3=O)c2)ncc1F (single isomer, unassigned) [Example 693, 3-{(1R or S)-1-[3-(5-fluoro-4-methylpyrimidin-2-yl)phenyl]ethyl}-1}-1-(1-methyl-1H-pyrazol-4-yl)pyridazin-4(1H)-one]
